Test results: BindingDB's records for doi:10.1021/jm00003a020 (University of Washington, 1995)

Assay: Inhibitory concentration was determined against delta-opioid receptor using [3H]- DPDPE radioligand

## Oc1ccc2c3c1O[C@H]1[C@H](OCc4ccccc4N=C=S)CC[C@@]4(O)C(C2)N(CC2CC2)CCC314 (stereo partly drawn) [4-cyclopropylmethyl-14-(2-isothiocyanatobenzyloxy)-(13R,14R,17S)-12-oxa-4-azapentacyclo[9.6.1.01,13.05,17.07,18]octadeca-7,9,11(18)-triene-10,17-diol(o-NCS)]
  IC50: 1.8 nM

## Oc1ccc2c3c1O[C@H]1[C@H](OCc4ccccc4CN=C=S)CC[C@@]4(O)C(C2)N(CC2CC2)CCC314 (stereo partly drawn) [4-cyclopropylmethyl-14-(2-isothiocyanatomethylbenzyloxy)-(1S,13R,14R,17S)-12-oxa-4-azapentacyclo[9.6.1.01,13.05,17.07,18]octadeca-7,9,11(18)-triene-10,17-diol(o-CH2NCS)]
  IC50: 22 nM

## Oc1ccc2c3c1O[C@H]1[C@H](OCc4cccc(N=C=S)c4)CC[C@@]4(O)C(C2)N(CC2CC2)CCC314 (stereo partly drawn) [4-cyclopropylmethyl-14-(3-isothiocyanatobenzyloxy)-(1S,13R,14R,17S)-12-oxa-4-azapentacyclo[9.6.1.01,13.05,17.07,18]octadeca-7,9,11(18)-triene-10,17-diol(m-NCS)]
  IC50: 6.5 nM

## Oc1ccc2c3c1O[C@H]1[C@H](OCc4cccc(CN=C=S)c4)CC[C@@]4(O)C(C2)N(CC2CC2)CCC314 (stereo partly drawn) [4-cyclopropylmethyl-14-(3-isothiocyanatomethylbenzyloxy)-(1S,13R,14R,17S)-12-oxa-4-azapentacyclo[9.6.1.01,13.05,17.07,18]octadeca-7,9,11(18)-triene-10,17-diol(m-CH2NCS)]
  IC50: 12 nM

## Oc1ccc2c3c1O[C@H]1[C@H](OCc4ccc(N=C=S)cc4)CC[C@@]4(O)C(C2)N(CC2CC2)CCC314 (stereo partly drawn) [4-cyclopropylmethyl-14-(4-isothiocyanatobenzyloxy)-(1S,13R,14R,17S)-12-oxa-4-azapentacyclo[9.6.1.01,13.05,17.07,18]octadeca-7,9,11(18)-triene-10,17-diol(p-NCS)]
  IC50: 35 nM
